Laboratory results taken from paper PMC2008813 (British Journal of Cancer, 1973).
Blank lines part the entries; values can stand above or below the molecule they belong to.

Experiments:
[1] = molecular target: T1, glucocorticoid receptor (Rattus norvegicus, UniProt P06536); experiment: competition with [3H]-triamcinolone acetonide, sucrose gradient centrifugation (weak; no effect at […]); conditions: read-out: % [3H]-triamcinolone acetonide bound at 5 umol/l
T1 construct: gene Nr3c1; native receptor in R3230AC tumour cytosol (8-9 S component)
T1 sequence (P06536 1-795): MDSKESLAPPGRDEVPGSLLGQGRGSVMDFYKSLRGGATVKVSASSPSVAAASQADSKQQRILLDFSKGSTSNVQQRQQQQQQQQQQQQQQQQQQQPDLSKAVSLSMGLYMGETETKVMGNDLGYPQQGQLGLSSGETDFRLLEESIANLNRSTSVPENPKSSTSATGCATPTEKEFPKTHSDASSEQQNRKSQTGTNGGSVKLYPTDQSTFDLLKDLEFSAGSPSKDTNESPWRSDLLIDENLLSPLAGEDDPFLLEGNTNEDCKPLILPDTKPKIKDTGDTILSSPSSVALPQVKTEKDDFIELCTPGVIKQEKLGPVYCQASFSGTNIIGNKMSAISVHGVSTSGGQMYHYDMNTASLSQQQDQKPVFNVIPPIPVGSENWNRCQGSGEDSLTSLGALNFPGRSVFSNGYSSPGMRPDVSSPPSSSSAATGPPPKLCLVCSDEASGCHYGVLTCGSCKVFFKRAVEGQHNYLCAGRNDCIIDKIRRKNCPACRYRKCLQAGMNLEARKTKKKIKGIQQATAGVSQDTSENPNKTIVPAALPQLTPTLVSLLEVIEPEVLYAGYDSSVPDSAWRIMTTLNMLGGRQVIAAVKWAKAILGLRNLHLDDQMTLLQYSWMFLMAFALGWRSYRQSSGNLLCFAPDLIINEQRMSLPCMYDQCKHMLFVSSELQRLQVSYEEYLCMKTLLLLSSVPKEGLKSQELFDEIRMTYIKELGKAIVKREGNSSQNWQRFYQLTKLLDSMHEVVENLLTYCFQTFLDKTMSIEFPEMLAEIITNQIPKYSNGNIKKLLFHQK

[2] = molecular target: T1, glucocorticoid receptor; experiment: competition with [3H]-triamcinolone acetonide, sucrose gradient centrifugation; conditions: read-out: % [3H]-triamcinolone acetonide bound at 1 umol/l
[3] = molecular target: T1, glucocorticoid receptor; experiment: as above; conditions: read-out: % [3H]-triamcinolone acetonide bound at 5 umol/l

SMILES: C[C@]12CC[C@@H]3c4ccc(O)cc4CC[C@H]3[C@@H]1CC[C@@H]2O [Oestradiol-17β]
- activity at 5 µM [1]: 45%

- activity at 1 µM [2]: 14%
SMILES: C[C@]12C=CC(=O)C=C1CC[C@H]1[C@@H]3C[C@@H](O)[C@](O)(C(=O)CO)[C@@]3(C)C[C@H](O)[C@@]12F [Triamcinolone]

- activity at 5 µM [3]: 25%
SMILES: C[C@]12CCC(=O)C=C1CC[C@@H]1[C@@H]2CC[C@@]2(C)[C@H]1CC[C@]2(O)C(=O)CO [cortexolone]
